Measurements published in patent US8937050B2, “Methods and compositions for treatment of autism” (The Johns Hopkins University, priority 2011, dated 2015).
“Also recorded” adds a separate entry of the source.

Key:
autism = experiment: Placebo-controlled study of HU in male adolescents and adults with autism; assay type: in vivo, human; conditions: HU at low doses
Experimental: Administration of hydroxyurea (HU) in adolescents and adults with autism is evaluated in a study designed to ensure safety and obtain efficacy data. HU is chosen based on its effects on the stress proteome in vitro and based on clinical observations of improvements (e.g., social responsiveness) in persons with autism during fever. (Curran et al., 2007).
The hybrid design of the study incorporates double masking, placebo control, and randomization to enhance the robustness of early outcome data. […]
Forty-five male adolescents (13-18 years) and adults (19-30 years) are randomly assigned to receive either HU (n=30, at 2 month escalating intervals: 10, 15 and 20 mg/kg/day) or placebo (n=15). Quantitative autism traits are assessed using the ADI-R, Social Responsiveness Scale (child and adult forms), Clinical Global Impression Scale (CGI) and Autism Behavior Checklist (ABC). […]
The effect of HU in autism is evaluated to ensure safety and efficacy (Piantadosi et al., 2005). […]
Male adolescent (n=15, ages 13-18 years) and adults (n=30, ages 19-30) are randomly assigned to receive either HU (at 2 month escalating intervals: […]) or placebo. Quantitative autism traits are assessed using the ADI-R, Social Responsiveness Scale (child and adult forms) (Constantino et al., 2005), Clinical Global Impressions Scale (CGI), and Autism Behavior Checklist (ABC). […]

[1] = system: sickle cell disease (SCD); conditions: cited from earlier work
K562 cells = experiment: Flow cytometric analysis of peroxisome proliferation (PEX14); assay type: cell-based, human; conditions: eight to ten days, FIG. 1E
Experimental: Fibroblasts (70-95% confluent) were treated with 5 mM 4PBA (1 mM for JNK inhibition studies), 600 μM HU, 200 nM TSA, or 5 μM SFN unless otherwise specified.
K562 cells were incubated with 50 nM Mitotracker Green FM, 300 nM Mitotracker Deep Red 633 (Invitrogen), or PBS as a negative control for 15 min at 37° C. or stained with anti-Pex14 using Caltag Fix and Perm reagents (Invitrogen) following the manufacturer's instructions. Stained cells were suspended in 0.5 mL of 1% paraformaldehyde/PBS and subjected to flow cytometric analysis (FACScan machine, Becton Dickinson, Franklin Lakes, N.J.).
K562 cells were treated with SB and HU for four to ten days. […] (n≧3 unless otherwise noted).
To determine whether the induction of mitochondrial biogenesis by SB or HU treatment was necessary for the induction of HbF-producing cell production, K562 cells were treated with SB or HU in the presence or absence of AA. […] After two to four days of drug treatment with or without AA, mitochondrial mass was measured using Mitotracker, a mitochondrial stain. Fold change (drug treated/control) is shown. […] After four days of drug treatment with or without AA, cells were stained with DAF. […] After eight to ten days of drug treatment, peroxisome proliferation was measured using an antibody against the peroxisomal membrane protein, PEX14 and a FITC-labeled secondary antibody. […]

Diabetes = conditions: Ozcan et al., 2006, Xue et al., 2008, Sun et al.; cited from earlier work
liver of mice = conditions: 3- and 12-hours after single dose 90 mg/kg by gavage, Hu et al., 2005; cited from earlier work
[2] = human research studies; cited from earlier work
[3] = Zhao et al., 2005; Clarke et al., 2011; cited from earlier work
HSF1 = conditions: luciferase reporter system; cited from earlier work

| Compound | clinical function in adolescents and adults with well characterized autism (autism) | cognitive function in children with SCD ([1]; Puffer et al., 2007) | incidence of strokes ([1]; SCD) | peroxisomal proliferation (K562 cells) | Therapeutic Effect (Diabetes) | Heat shock proteins and ubiquitin/26 S proteasome subunits in liver (liver of mice) | adverse effects [2] | blood brain barrier crossing [3] | HSF1 mediated transcription of the reporter (HSF1) |
| --- | --- | --- | --- | --- | --- | --- | --- | --- | --- |
| NC(=O)NO [HU, hydroxyurea] | improved clinical function | improve cognitive function | decreases | significantly increased | – | – | – | – | – |
| C[S@@+]([O-])CCCCN=C=S [SFN, 1-isothiocyanato-4R-(methylsulfinyl)butane] | – | – | – | – | hyperglycemia normalization; also recorded: improve glucose utilization | induced | not shown any significant adverse effects | crosses the blood brain barrier | activated |
